Data from patent US20230218631A1 (priority 2020, published 2023).

Legend:
[1] = system: wild-type mice (both male and female); test: Drinking in the Dark binge-like ethanol drinking; assay type: in vivo; conditions: 2 mg/kg i.p. for 10 days, 30 min before session, 20% ethanol, both sexes
Description: Since UNC0642 blocked stress-potentiated ethanol drinking in mice, as show above, we next tested whether UNC0642 could alter binge-like ethanol drinking in both sexes. Wild-type mice (both male and female) were given ethanol for 1 week in a “Drinking in the Dark” paradigm (Rhodes et al., 2005), a well-established alcohol model that is similar to binge-drinking in humans. Both male and female mice were given a single bottle of 20% ethanol in their home cage for 2 hours per day for 3 days. No alternative bottle of water was given in this experiment. On the 4th day, the access to the bottle was extended to 4 hours to model a binge-drinking session. After the first week, mice were split into even groups and were injected with UNC0642 (2 mg/kg, i.p.) or vehicle for 10 days 30 minutes before each drinking session began. Mice were tested for changes in baseline drinking and binge drinking for 2 weeks. […] Our data detected the well-documented sex differences in alcohol intake in these assays, but there was no significant interaction between sex and UNC0642 treatment.

mice = test: Sucrose pellet self-administration, extinction and cue-induced reinstatement; assay type: in vivo
Description: Mice were first injected with UNC0642 (2 mg/kg, i.p) or vehicle-alone once daily for 10 days. Thirty minutes following the 10th dose, they began the first 2-hour sucrose self-administration session. The UNC0642 and vehicle injections occurred 30 minutes before the start of each sucrose self-administration, extinction, and reinstatement session. All self-administration experiments occurred in standard operant chambers with two nose-poke detectors, a house light, and a cue light and tone generator (Med Associates, Fairfield, Vt.). All sucrose-paired nose-pokes, including those during the timeout, were recorded and are reported as “paired nose pokes”. No fasting occurred during any stage of the experiment. During the 2-hour sessions, mice were trained to nose-poke in the paired side on a fixed-ratio 1 (FR1) schedule with 15-second timeout period after delivery of a single sucrose pellet. Concurrent with the pellet delivery, a cue tone and cue light (which is located immediately above the paired nose-poke port) are activated. All mice had ten self-administration sessions. […] Finally, we examined the number of nose-pokes on the paired side during timeout periods. Similar to the paired nose-poke data above, there was a slight effect on the interaction between UNC0642 treatment and sex. […] Overall, UNC0642 had no effect on sucrose-taking behavior as all groups increased their responding for sucrose pellets over time, and they learned and remembered the relationship between the reinforced (sucrose-paired) and the non-reinforced (unpaired) ports.
Sucrose-seeking behaviors were next tested in these same mice. Following a 7-day period in the home cage with ad libitum food and water, all mice began extinction training for 6 consecutive days (a model of context-associated sucrose-seeking behavior). […] Finally, light/tone cue-induced reinstatement behavior (a model of discreet cue-induced sucrose-seeking behavior) was tested one day after the 6th extinction session in a single 2-hour session. Mice were allowed to nose-poke for light and tone cues without receiving pellets. […] We also found UNC0642 had no effect on UNC0642 on the number of unpaired nose pokes during cue induced reinstatement of sucrose pellet self-administration (FIG. 9J; Three-Way ANOVA, Day: F1,26=6.739, p=0.0153, Sex: F1,26=6.739, p=0.0153, no other significant effects) and UNC0642 had no effect on the discrimination ratio between paired and unpaired nose pokes during cue-induced reinstatement of sucrose pellet self-administration (FIG. 9K; Three-Way ANOVA, Sex: F1,26=5.880, p=0.0226, no other significant effects).

COc1cc2c(NC3CCN(C(C)C)CC3)nc(N3CCC(F)(F)CC3)nc2cc1OCCCN1CCCC1 [UNC0642, 2-(4,4-Difluoropiperidin-1-yl)-6-methoxy-N-[1-(propan-2-yl)piperidin-4-yl]-7-[3-(pyrrolidin-1-yl)propoxy]quinazolin-4-amine]
no effect: single-bottle alcohol drinking, baseline 2 hour sessions ([1]; FIG. 8A) | binge alcohol drinking, 4-hour binge sessions ([1]; FIG. 8B) | number of sucrose pellets earned during sucrose pellet self-administration (mice; 2 mg/kg i.p. once daily, 30 min before session, FR1, FIG. 9A) | number of paired nose pokes during extinction learning following sucrose pellet self-administration (mice; 2 mg/kg i.p., 6 extinction days, FIG. 9F) | number of unpaired nose pokes during sucrose pellet self-administration (mice; 2 mg/kg i.p., FIG. 9C) | discrimination ratio between paired and unpaired nose pokes during sucrose pellet self-administration (mice; 2 mg/kg i.p., FIG. 9D) | unpaired nose-pokes during extinction learning following sucrose pellet self-administration (mice; 2 mg/kg i.p., FIG. 9G) | discrimination ratio between paired and unpaired nose pokes during extinction learning (mice; 2 mg/kg i.p., FIG. 9H) | number of paired nose pokes during cue induced reinstatement of sucrose pellet self-administration (mice; 2 mg/kg i.p., FIG. 9I) | number of unpaired nose pokes during cue induced reinstatement of sucrose pellet self-administration (mice; 2 mg/kg i.p., FIG. 9J) | discrimination ratio between paired and unpaired nose pokes during cue-induced reinstatement (mice; 2 mg/kg i.p., FIG. 9K)
slightly higher: timeout responding, female mice (mice; 2 mg/kg i.p., female mice in UNC0642 group, FIG. 9E)
slight increase: paired nose-pokes during self-administration, female mice (mice; 2 mg/kg i.p., female mice in UNC0642 group, Day X Treatment interaction, FIG. 9B)
no overall effect: number of paired nose pokes during sucrose pellet self-administration (mice; 2 mg/kg i.p., overall, FIG. 9B) | number of timeout responses on the paired nose port during sucrose pellet self-administration (mice; 2 mg/kg i.p., overall, FIG. 9E)
